Numbered stars: 1 amine (or outer) side, 2 acyl side, 3 side chain; on linkers, the order of the positions; unused ones are H or OH. Square brackets hold non-standard residues; d marks the D form. Peptide text beside a SMILES is read from it. * marks the point of attachment. Pro(3R,4S-CMe2) = CC1(C)[C@@H]2[C@@H](C(=O)O)NC[C@@H]21; Pro(4,4-S(CH2)3S) = O=C(O)[C@@H]1CC2(CN1)SCCCS2; Pro(4,4-SCH2CH2S) = O=C(O)[C@@H]1CC2(CN1)SCCS2; X4 = O=C(C(=O)[*:2])C(CCC(F)(F)F)N[*:1]; Pro(4,4-Me2) = CC1(C)CN[C@H](C(=O)O)C1; Pro(4R-Me) = C[C@H]1CN[C@H](C(=O)O)C1; Isobutyloxycarbonyl = CC(C)COC(=O)*; X1 = O=C(C(=O)[*:2])C(CC1CC1)N[*:1]; X3 = CCCCC(N[*:1])C(=O)C(=O)[*:2]; Hyp = O=C(O)[C@@H]1C[C@@H](O)CN1; X2 = CCCC(N[*:1])C(=O)C(=O)[*:2]; Chg = N[C@H](C(=O)O)C1CCCCC1; Phg = N[C@H](C(=O)O)c1ccccc1; Tle = CC(C)(C)[C@H](N)C(=O)O; Boc = CC(C)(C)OC(=O)*; tBu = CC(C)(C)*
Assays:
NS3 = NS3 (Hepatitis C virus, UniProt A3EZJ3); experiment: Binding affinity to HCV NS3 serine protease; design: species or system Hepacivirus hominis
Hepatitis C virus = experiment: Inhibition of HCV replicon; assay type: functional, Hepacivirus hominis
[1] = AUC in rat at 10 mg/kg, po; assay type: ADME, organism-based; design: dose 10 mg/kg, route oral; conditions: plasma
[2] = Cmax in rat at 10 mg/kg, po; assay type: ADME, organism-based; design: dose 10 mg/kg, route oral; conditions: in vivo
[3] = AUC in rat at 5 mg/kg, iv; assay type: ADME, organism-based; design: dose 5 mg/kg, route intravenous; conditions: plasma
[4] = Half life in rat at 5 mg/kg, iv; assay type: ADME, organism-based; design: dose 5 mg/kg, route intravenous; conditions: in vivo
[5] = Clearance in rat; assay type: ADME, organism-based; conditions: in vivo
[6] = Oral bioavailability in rat at 10 mg/kg, po; assay type: ADME, organism-based; conditions: in vivo
[7] = AUC in rat at 10 mg/kg, sc; assay type: ADME, organism-based; design: dose 10 mg/kg, route subcutaneous; conditions: plasma
[8] = Selectivity for HCV NS3 serine protease over HNE
[9] = Cmax in rat at 10 mg/kg, sc; assay type: ADME, organism-based; design: dose 10 mg/kg, route subcutaneous; conditions: in vivo
[10] = Oral bioavailability in rat at 10 mg/kg, sc; assay type: ADME, organism-based; conditions: in vivo, subcutaneous
[11] = AUC in monkey at 3 mg/kg, po; assay type: ADME, organism-based, Macaca mulatta; design: dose 3 mg/kg, route oral; conditions: rhesus monkey, plasma
[12] = Cmax in monkey at 3 mg/kg, po; assay type: ADME, organism-based, Macaca mulatta; design: dose 3 mg/kg, route oral; conditions: rhesus monkey, in vivo
[13] = AUC in monkey at 1 mg/kg, iv; assay type: ADME, organism-based, Macaca mulatta; design: dose 1 mg/kg, route intravenous; conditions: rhesus monkey, plasma
[14] = Half life in monkey at 1 mg/kg, iv; assay type: ADME, organism-based, Macaca mulatta; design: dose 1 mg/kg, route intravenous; conditions: rhesus monkey, in vivo
[15] = Clearance in monkey; assay type: ADME, organism-based, Macaca mulatta; conditions: rhesus monkey, in vivo
[16] = Oral bioavailability in monkey at 3 mg/kg, po; assay type: ADME, organism-based, Macaca mulatta; conditions: rhesus monkey, in vivo
[17] = AUC in monkey at 1 mg/kg, sc; assay type: ADME, organism-based, Macaca mulatta; design: dose 1 mg/kg, route subcutaneous; conditions: rhesus monkey, plasma
[18] = Cmax in monkey at 1 mg/kg, sc; assay type: ADME, organism-based, Macaca mulatta; design: dose 1 mg/kg, route subcutaneous; conditions: rhesus monkey, in vivo
[19] = Oral bioavailability in monkey at 1 mg/kg, sc; assay type: ADME, organism-based, Macaca mulatta; conditions: rhesus monkey, in vivo, subcutaneous

NS3, sequence (A3EZJ3 whole entry): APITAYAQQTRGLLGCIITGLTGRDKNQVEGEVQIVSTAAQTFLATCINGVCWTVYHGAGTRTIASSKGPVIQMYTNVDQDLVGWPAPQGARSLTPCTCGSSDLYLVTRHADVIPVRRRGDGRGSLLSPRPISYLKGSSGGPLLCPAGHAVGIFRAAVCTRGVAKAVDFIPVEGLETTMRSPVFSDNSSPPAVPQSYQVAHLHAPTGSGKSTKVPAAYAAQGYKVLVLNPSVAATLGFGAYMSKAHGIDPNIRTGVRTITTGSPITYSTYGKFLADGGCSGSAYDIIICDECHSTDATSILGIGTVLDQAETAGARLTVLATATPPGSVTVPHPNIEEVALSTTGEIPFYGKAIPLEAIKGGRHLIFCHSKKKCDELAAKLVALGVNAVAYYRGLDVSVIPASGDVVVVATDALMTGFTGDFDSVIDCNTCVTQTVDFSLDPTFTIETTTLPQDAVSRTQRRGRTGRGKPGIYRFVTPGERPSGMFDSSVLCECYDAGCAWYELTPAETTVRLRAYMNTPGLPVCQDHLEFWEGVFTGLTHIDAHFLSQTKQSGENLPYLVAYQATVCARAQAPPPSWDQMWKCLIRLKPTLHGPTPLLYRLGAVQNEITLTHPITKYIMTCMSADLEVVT

Row | Compound | Ki (NS3) | IC90 (Hepatitis C virus) | Selectivity ratio [8] | further results
1 | CCCC(NC(=O)[C@@H]1[C@H]2CC(C)(C)O[C@H]2CN1C(=O)[C@@H](NC(=O)OCC(C)C)C(C)(C)C)C(=O)C(=O)NCC(=O)N[C@H](C(=O)N(C)C)c1ccccc1 (some centres undefined) | 10 nM | 1800 nM |  | 
2 | CCCC(NC(=O)[C@@H]1C[C@@H](SC(C)(C)C)CN1C(=O)[C@@H](NC(=O)OCC(C)C)C(C)(C)C)C(=O)C(=O)NCC(=O)N[C@H](C(=O)N(C)C)c1ccccc1 (some centres undefined) | 120 nM |  |  | 
3 | CCCC(NC(=O)[C@@H]1[C@H]2CC(C)(C)C[C@H]2CN1C(=O)[C@@H](NC(=O)OCC(C)C)C(C)(C)C)C(=O)C(=O)NCC(=O)N[C@H](C(=O)N(C)C)c1ccccc1 (some centres undefined) | 15 nM | 900 nM |  | 
4 | CCCC(NC(=O)[C@@H]1CC2(CCCC2)CN1C(=O)[C@@H](NC(=O)OCC(C)C)C1CCCCC1)C(=O)C(=O)NCC(=O)N[C@H](C(=O)N(C)C)c1ccccc1 (some centres undefined) | 26 nM |  |  | 
5 | CN(C)C(=O)[C@@H](NC(=O)CNC(=O)C(=O)C(CC1CC1)NC(=O)[C@@H]1[C@@H]2[C@H](CN1C(=O)[C@@H](NC(=O)OC(C)(C)C)C(C)(C)C)C2(C)C)c1ccccc1 (stereo partly drawn) (Boc-[Tle][Pro(3R,4S-CMe2)][X1]G[Phg]-NMe2) | 3.8 nM | 100 nM | 1000 | AUC [1]: 0.35 µM·h; Cmax [2]: 120 nM; AUC [3]: 4.7 µM·h; half-life [4]: 5.2 h; clearance [5]: 24 mL/min/kg; bioavailability [6]: 4%; AUC [7]: 19.5 µM·h; Cmax [9]: 4370 nM; bioavailability [10]: 100%; AUC [11]: 0.03 µM·h; Cmax [12]: 30 nM; AUC [13]: 3.4 µM·h; half-life [14]: 5.3 h; clearance [15]: 6.9 mL/min/kg; bioavailability [16]: 1%; AUC [17]: 5.6 µM·h; Cmax [18]: 1600 nM; bioavailability [19]: 100%
6 | CCCC(NC(=O)[C@@H]1[C@@H]2[C@H](CN1C(=O)[C@@H](NC(=O)OC(C)(C)C)C(C)(C)C)C2(C)C)C(=O)C(=O)NCC(=O)N[C@H](C(=O)N(C)C)c1ccccc1 (stereo partly drawn) (Boc-[Tle][Pro(3R,4S-CMe2)][X2]G[Phg]-NMe2) | 14 nM | 250 nM | 147 | 
7 | CCCCC(NC(=O)[C@@H]1[C@@H]2[C@H](CN1C(=O)[C@@H](NC(=O)OC(C)(C)C)C(C)(C)C)C2(C)C)C(=O)C(=O)NCC(=O)N[C@H](C(=O)N(C)C)c1ccccc1 (stereo partly drawn) (Boc-[Tle][Pro(3R,4S-CMe2)][X3]G[Phg]-NMe2) | 10 nM | 400 nM | 964 | 
8 | CN(C)C(=O)[C@@H](NC(=O)CNC(=O)C(=O)C(CCC(F)(F)F)NC(=O)[C@@H]1[C@@H]2[C@H](CN1C(=O)[C@@H](NC(=O)OC(C)(C)C)C(C)(C)C)C2(C)C)c1ccccc1 (stereo partly drawn) (Boc-[Tle][Pro(3R,4S-CMe2)][X4]G[Phg]-NMe2) | 2 nM | 400 nM | 4600 | 
9 | CCCC(NC(=O)[C@@H]1CCCN1C(=O)[C@@H](NC(=O)OCC(C)C)C1CCCCC1)C(=O)C(=O)NCC(=O)N[C@H](C(=O)N(C)C)c1ccccc1 (some centres undefined) (Isobutyloxycarbonyl-[Chg]P[X2]G[Phg]-NMe2) | 10000 nM |  |  | 
10 | CCCC(NC(=O)[C@@H]1[C@@H]2[C@H](CN1C(=O)[C@@H](NC(=O)OCC(C)C)C1CCCCC1)C2(C)C)C(=O)C(=O)NCC(=O)N[C@H](C(=O)N(C)C)c1ccccc1 (stereo partly drawn) (Isobutyloxycarbonyl-[Chg][Pro(3R,4S-CMe2)][X2]G[Phg]-NMe2) | 10 nM | 200 nM | 4 | 
11 | CCCC(NC(=O)[C@@H]1CC2(CN1C(=O)[C@@H](NC(=O)OCC(C)C)C1CCCCC1)SCCCS2)C(=O)C(=O)NCC(=O)N[C@H](C(=O)N(C)C)c1ccccc1 (some centres undefined) (Isobutyloxycarbonyl-[Chg][Pro(4,4-S(CH2)3S)][X2]G[Phg]-NMe2) | 28 nM |  |  | 
12 | CCCC(NC(=O)[C@@H]1CC2(CN1C(=O)[C@@H](NC(=O)OCC(C)C)C1CCCCC1)SCCS2)C(=O)C(=O)NCC(=O)N[C@H](C(=O)N(C)C)c1ccccc1 (some centres undefined) (Isobutyloxycarbonyl-[Chg][Pro(4,4-SCH2CH2S)][X2]G[Phg]-NMe2) | 26 nM |  |  | 
13 | CCCC(NC(=O)[C@@H]1C[C@@H](OC(C)(C)C)CN1C(=O)[C@@H](NC(=O)OCC(C)C)C(C)(C)C)C(=O)C(=O)NCC(=O)N[C@H](C(=O)N(C)C)c1ccccc1 (some centres undefined) (Isobutyloxycarbonyl-[Tle][Hyp](tBu)[X2]G[Phg]-NMe2) | 19 nM | 2000 nM |  | 
14 | CCCC(NC(=O)[C@@H]1[C@@H]2[C@H](CN1C(=O)[C@@H](NC(=O)OCC(C)C)C(C)(C)C)C2(C)C)C(=O)C(=O)NCC(=O)N[C@H](C(=O)N(C)C)c1ccccc1 (stereo partly drawn) (Isobutyloxycarbonyl-[Tle][Pro(3R,4S-CMe2)][X2]G[Phg]-NMe2) | 16 nM | 350 nM | 81 | 
15 | CCCC(NC(=O)[C@@H]1CC(C)(C)CN1C(=O)[C@@H](NC(=O)OCC(C)C)C(C)(C)C)C(=O)C(=O)NCC(=O)N[C@H](C(=O)N(C)C)c1ccccc1 (some centres undefined) (Isobutyloxycarbonyl-[Tle][Pro(4,4-Me2)][X2]G[Phg]-NMe2) | 36 nM |  |  | 
16 | CCCC(NC(=O)[C@@H]1C[C@@H](C)CN1C(=O)[C@@H](NC(=O)OCC(C)C)C(C)(C)C)C(=O)C(=O)NCC(=O)N[C@H](C(=O)N(C)C)c1ccccc1 (stereo partly drawn) (Isobutyloxycarbonyl-[Tle][Pro(4R-Me)][X2]G[Phg]-NMe2) | 140 nM |  |  | 

Reference: ChEMBL document CHEMBL1147660, “Discovery of SCH446211 (SCH6): a new ketoamide inhibitor of the HCV NS3 serine protease and HCV subgenomic RNA replication” (J Med Chem, 2006)
